Reference: patent publication US5166163A, “3-(1H-indazol-3-yl)-4-pyridinamines” (Hoechst-Roussel Pharmaceuticals Incorporated, priority 1991, dated 1992)
Structures can show the parent of a compound that is named as a salt.

Key:
[1] = test system: phenyl-para-quinone writhing; assay: phenyl-para-quinone writhing assay in mice (analgesia); format: in vivo; settings: s.c.
Source text: The compounds of the present invention are useful as analgesic agents. […] Exptl. Biol. Med., 95,729 (1957)].

[2] = test system: ear edema induced by topical application of TPA (phorbol 12-myristate acetate); assay: TPA-Induced Ear Edema (TPAEE); format: in vivo, Female Swiss Webster mice; settings: mice
Protocol: The purpose of this assay was to determine the ability of a topically-applied compound to prevent ear edema induced by topical application of TPA (phorbol 12-myristate acetate). Female Swiss Webster mice topically received TPA (10 μg/ear) on the right ear and vehicle on the left ear. The test compound (10 μg/ear) was applied to both ears. After five hours, the animals were sacrificed and an ear punch (4 mm) was taken from each ear. The difference in right and left ear punch weights for each animal was determined to assess activity. […] See Young, J. M. et al., J. Invest. Dermatol., 80 (1983), pp. 48-52.

Structure (SMILES): NN=C(c1cnccc1N)c1ccccc1F [(4-Amino-3-pyridinyl)-2-fluorophenylmethanone hydrazone dihydrochloride]
- % Inhibition of Writhing ([1]; 20 mg/kg of body wt.): 74%

Structure (SMILES): CC(C)(C)C(=O)Nc1ccncc1-c1n[nH]c2ccccc12 [N-[3-(1H-Indazol-3-yl)-4-pyridinyl]-2,2-dimethylpropanamide]
- TPAEE (difference in right and left ear punch weights) ([2]; 10 μg/ear, both ears, five hours, TPA 10 μg/ear on right ear): -31%

Structure (SMILES): CCC(=O)O[C@](Cc1ccccc1)(c1ccccc1)[C@H](C)CN(C)C [Propoxyphene, reference compound]
- % Inhibition of Writhing ([1]; 3.9 mg/kg of body wt., standard): 50%

Structure (SMILES): CC(C)(C)C(=O)Nc1ccncc1C(=NN)c1ccccc1F [[4-(2,2-Dimethylpropionamido)-3-pyridinyl]-2-fluorophenylmethanonehydrazonemaleate]
- % Inhibition of Writhing ([1]; 20 mg/kg of body wt.): 60%

Structure (SMILES): C[C@]12CCC(=O)C=C1CC[C@@H]1[C@@H]2[C@@H](O)C[C@@]2(C)[C@H]1CC[C@]2(O)C(=O)CO [hydrocortisone, reference compound]
- ED50 ([2]; standard, TPA-induced ear edema): 47 μg/ear
